Experiment [1] concerns the target IKKε (Homo sapiens (Human), UniProt Q14164). In words: IKKε TR-FRET enzymatic assay. To be noted: read-out: IKKe IC50. Format: biochemical. For orientation: In TR-FRET formats the signal depends on donor and acceptor labels being close together.
Experiment [2] has as its target hJAK2 (Homo sapiens (Human), UniProt O60674). In words: hJAK2 LANCE TR-FRET enzymatic assay. The format is biochemical. As to conditions: read-out: JAK2 IC50.
The target in experiment [3] is TBK1 (Homo sapiens (Human), UniProt Q9UHD2). In words: TBK1 TR-FRET enzymatic assay.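 Also: phosphorylation of a biotinylated Ser/Thr peptide by purified full-length recombinant TBK1, read by TR-FRET after 240 min at 25 °C, IC50 is the geometric mean of at least four runs.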

Where only a bound is given, the exact number is not on record here.

Chain of IKKε (Q14164 whole entry): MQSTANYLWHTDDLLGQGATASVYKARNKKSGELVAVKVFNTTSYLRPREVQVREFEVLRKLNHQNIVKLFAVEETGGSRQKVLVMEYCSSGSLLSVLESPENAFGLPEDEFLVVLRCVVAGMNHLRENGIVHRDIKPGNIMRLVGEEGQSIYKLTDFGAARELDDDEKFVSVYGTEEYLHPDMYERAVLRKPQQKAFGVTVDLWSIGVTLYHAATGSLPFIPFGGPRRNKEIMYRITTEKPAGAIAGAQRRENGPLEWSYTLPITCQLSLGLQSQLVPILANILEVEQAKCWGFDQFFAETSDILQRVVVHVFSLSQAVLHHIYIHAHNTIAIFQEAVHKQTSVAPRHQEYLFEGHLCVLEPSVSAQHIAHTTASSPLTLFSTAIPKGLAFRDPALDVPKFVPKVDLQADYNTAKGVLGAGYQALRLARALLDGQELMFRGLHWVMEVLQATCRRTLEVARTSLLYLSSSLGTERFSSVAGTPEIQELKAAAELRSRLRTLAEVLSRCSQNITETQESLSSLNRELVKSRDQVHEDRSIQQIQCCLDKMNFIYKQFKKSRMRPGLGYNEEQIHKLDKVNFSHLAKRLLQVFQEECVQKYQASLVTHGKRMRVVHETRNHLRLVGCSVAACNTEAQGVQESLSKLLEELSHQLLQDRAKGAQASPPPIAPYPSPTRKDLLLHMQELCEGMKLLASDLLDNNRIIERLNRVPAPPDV
Chain of hJAK2 (O60674 whole entry): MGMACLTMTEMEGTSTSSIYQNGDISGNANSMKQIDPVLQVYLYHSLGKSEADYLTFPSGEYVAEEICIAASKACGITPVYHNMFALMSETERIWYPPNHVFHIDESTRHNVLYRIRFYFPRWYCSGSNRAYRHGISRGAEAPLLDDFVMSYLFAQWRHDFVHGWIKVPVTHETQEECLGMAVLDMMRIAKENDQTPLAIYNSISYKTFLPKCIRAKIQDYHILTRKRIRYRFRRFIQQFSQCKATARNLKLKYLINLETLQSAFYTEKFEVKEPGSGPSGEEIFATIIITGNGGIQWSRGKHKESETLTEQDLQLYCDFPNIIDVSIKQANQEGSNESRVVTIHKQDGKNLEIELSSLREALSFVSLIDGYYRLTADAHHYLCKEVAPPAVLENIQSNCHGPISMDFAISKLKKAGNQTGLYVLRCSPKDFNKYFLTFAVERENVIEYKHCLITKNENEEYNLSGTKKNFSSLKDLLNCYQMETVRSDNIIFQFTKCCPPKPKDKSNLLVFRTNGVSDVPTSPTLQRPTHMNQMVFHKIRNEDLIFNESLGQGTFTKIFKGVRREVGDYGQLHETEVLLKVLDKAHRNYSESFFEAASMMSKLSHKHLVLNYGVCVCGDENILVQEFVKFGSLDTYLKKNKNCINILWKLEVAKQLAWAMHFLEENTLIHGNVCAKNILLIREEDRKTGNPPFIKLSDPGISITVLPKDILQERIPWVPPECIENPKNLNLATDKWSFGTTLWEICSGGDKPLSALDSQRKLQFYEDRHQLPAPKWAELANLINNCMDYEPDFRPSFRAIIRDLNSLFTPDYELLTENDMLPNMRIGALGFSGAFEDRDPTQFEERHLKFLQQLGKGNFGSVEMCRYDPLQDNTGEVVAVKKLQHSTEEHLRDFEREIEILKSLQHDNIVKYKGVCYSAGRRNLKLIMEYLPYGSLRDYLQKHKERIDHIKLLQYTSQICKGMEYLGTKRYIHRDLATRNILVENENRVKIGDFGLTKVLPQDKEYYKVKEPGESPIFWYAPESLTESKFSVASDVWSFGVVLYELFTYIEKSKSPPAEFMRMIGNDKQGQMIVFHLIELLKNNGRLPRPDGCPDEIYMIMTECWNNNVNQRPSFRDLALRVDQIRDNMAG
Chain of TBK1 (Q9UHD2 whole entry): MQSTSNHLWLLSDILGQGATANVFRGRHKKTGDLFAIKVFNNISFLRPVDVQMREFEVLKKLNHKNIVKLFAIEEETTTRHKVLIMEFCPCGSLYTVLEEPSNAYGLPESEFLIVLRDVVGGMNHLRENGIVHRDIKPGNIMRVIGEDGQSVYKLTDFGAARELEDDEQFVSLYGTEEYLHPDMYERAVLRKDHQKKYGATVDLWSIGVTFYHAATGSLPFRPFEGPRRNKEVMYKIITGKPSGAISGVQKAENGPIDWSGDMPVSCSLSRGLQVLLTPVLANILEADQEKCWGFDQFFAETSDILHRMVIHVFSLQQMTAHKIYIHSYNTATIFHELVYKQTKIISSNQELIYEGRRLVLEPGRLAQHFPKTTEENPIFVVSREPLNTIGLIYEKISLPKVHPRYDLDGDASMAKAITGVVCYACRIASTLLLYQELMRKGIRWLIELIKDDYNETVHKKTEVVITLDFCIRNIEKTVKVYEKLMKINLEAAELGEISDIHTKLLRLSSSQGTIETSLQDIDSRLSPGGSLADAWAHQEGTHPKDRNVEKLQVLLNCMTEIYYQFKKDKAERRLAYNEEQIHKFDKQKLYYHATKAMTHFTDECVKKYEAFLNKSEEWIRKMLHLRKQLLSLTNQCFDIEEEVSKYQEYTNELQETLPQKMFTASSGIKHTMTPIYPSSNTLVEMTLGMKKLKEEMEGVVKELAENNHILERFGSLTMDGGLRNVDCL

As to `N#Cc1cc(-c2ncnc(Nc3ccc(N4CCN(C5COC5)CC4)cc3)n2)ccc1O[C@@H]1CCN(C(=O)C(F)F)C1` [Example 96, (R)-2-((1-(2,2-difluoroacetyl)pyrrolidin-3-yl)oxy)-5-(4-((4-(4-(oxetan-3-yl)piperazin-1-yl)phenyl)amino)-1,3,5-triazin-2-yl)benzonitrile], the figures for the half-maximal inhibitory concentration (IC50) in experiment [1], in experiment [2] and in experiment [3] were 91 nM, 560 nM and 21 nM, respectively.

As for `N#Cc1cc(-c2ncnc(Nc3ccc(N4CCN(C5COC5)CC4)cc3)n2)ccc1OC1CCCN(C(=O)CO)CC1` (stereo not drawn) [Example 97, 2-((1-(2-hydroxyacetyl)azepan-4-yl)oxy)-5-(4-((4-(4-(oxetan-3-yl)piperazin-1-yl)phenyl)amino)-1,3,5-triazin-2-yl)benzonitrile], the concentration for half-maximal inhibition (IC50) (in general, the midpoint of a concentration-inhibition curve) came to 22 nM in experiment [1], 241 nM in experiment [2] and 11 nM in experiment [3].

As to `N#Cc1cc(-c2ncnc(Nc3ccc(N4CCN(C5COC5)CC4)cc3)n2)ccc1OC1CN(C(=O)CO)CC1(F)F` (stereo not drawn) [Example 98, 2-((4,4-difluoro-1-(2-hydroxyacetyl)pyrrolidin-3-yl)oxy)-5-(4-((4-(4-(oxetan-3-yl)piperazin-1-yl)phenyl)amino)-1,3,5-triazin-2-yl)benzonitrile], the values for the half-inhibitory concentration (IC50) in experiment [1], in experiment [2] and in experiment [3] were 14 nM, 119 nM and 5 nM, respectively.

With `C[C@@H]1C[C@@H](Oc2ccc(-c3ncnc(Nc4ccc(N5CCN(C6COC6)CC5)cc4)n3)cc2C#N)CN1C(=O)CO` [Example 99, 2-(((3R,5R)-1-(2-hydroxyacetyl)-5-methylpyrrolidin-3-yl)oxy)-5-(4-((4-(4-(oxetan-3-yl)piperazin-1-yl)phenyl)amino)-1,3,5-triazin-2-yl)benzonitrile], the IC50 in experiment [1] worked out at 193 nM; in experiment [2] it was 440 nM; in experiment [3], 77 nM.

On to `C[C@H]1C[C@@H](Oc2ccc(-c3ncnc(Nc4ccc(N5CCN(C6COC6)CC5)cc4)n3)cc2C#N)CN1C(=O)CO` [Example 100, 2-(((3R,5S)-1-(2-hydroxyacetyl)-5-methylpyrrolidin-3-yl)oxy)-5-(4-((4-(4-(oxetan-3-yl)piperazin-1-yl)phenyl)amino)-1,3,5-triazin-2-yl)benzonitrile], for which the IC50 in experiment [1] is 249 nM; in experiment [2] it was 525 nM; in experiment [3], 121 nM.

In the case of `N#Cc1cc(-c2ncnc(Nc3ccc(N4CCN(C5COC5)CC4)cc3)n2)ccc1O[C@H]1C[C@@H]2C[C@H]1N(C(=O)CO)C2` [Example 102, 2-(((1R,4S,6S)-2-(2-hydroxyacetyl)-2-azabicyclo[2.2.1]heptan-6-yl)oxy)-5-(4-((4-(4-(oxetan-3-yl)piperazin-1-yl)phenyl)amino)-1,3,5-triazin-2-yl)benzonitrile], the results for the IC50 in experiment [1], in experiment [2] and in experiment [3] were 24 nM, 380 nM and 11 nM, respectively.

For `N#Cc1cc(-c2ncnc(Nc3ccc(N4CCOCC4)cc3)n2)ccc1O[C@@H]1CCN(C(=O)CO)C1` [Example 103, (R)-2-((1-(2-hydroxyacetyl)pyrrolidin-3-yl)oxy)-5-(4-((4-morpholinophenyl)amino)-1,3,5-triazin-2-yl)benzonitrile], the results for the half-maximal inhibitory concentration (IC50) in experiment [1], in experiment [2] and in experiment [3] were 10 nM, 260 nM and 6 nM, respectively.

With `COc1ccc(-c2ncnc(Nc3ccc(N4CCN(C5COC5)CC4)cc3)n2)cc1C#N` [Example 104, 2-methoxy-5-(4-((4-(4-(oxetan-3-yl)piperazin-1-yl)phenyl)amino)-1,3,5-triazin-2-yl)benzonitrile], the results for the half-maximal inhibitory concentration (IC50) in experiment [1], in experiment [2] and in experiment [3] were 215 nM, 328 nM and 42 nM, respectively.

On to `COc1cc(C#N)cc(-c2ncnc(Nc3ccc(N4CCN(C5COC5)CC4)cc3)n2)c1` [Example 105, 3-methoxy-5-(4-((4-(4-(oxetan-3-yl)piperazin-1-yl)phenyl)amino)-1,3,5-triazin-2-yl)benzonitrile], for which the half-inhibitory concentration (IC50) in experiment [1] was above 1000 nM; in experiment [2] it was 212 nM; in experiment [3], 79 nM.

For the compound `N#Cc1cc(-c2ncnc(Nc3ccc(Cn4ccnc4)cc3)n2)ccc1OC1CCOCC1` [Example 106, 5-(4-((4-((1H-imidazol-1-yl)methyl)phenyl)amino)-1,3,5-triazin-2-yl)-2-((tetrahydro-2H-pyran-4-yl)oxy)benzonitrile], the IC50 in experiment [1] is 4 nM; in experiment [2] it was above 1000 nM; in experiment [3], 5 nM.

Regarding `CC1(O)CCN(c2ccc(Nc3ncnc(-c4ccc(OC5CCOCC5)c(C#N)c4)n3)cc2)C1` (stereo not drawn) [Example 108, 5-(4-((4-(3-hydroxy-3-methylpyrrolidin-1-yl)phenyl)amino)-1,3,5-triazin-2-yl)-2-((tetrahydro-2H-pyran-4-yl)oxy)benzonitrile], the IC50 is 6 nM in experiment [1], above 1000 nM in experiment [2] and 3 nM in experiment [3].

Turning to `Cc1cc(N2CCOCC2)ccc1Nc1ncnc(-c2ccc(OC3CCOCC3)c(C#N)c2)n1` [Example 109, 5-(4-((2-methyl-4-morpholinophenyl)amino)-1,3,5-triazin-2-yl)-2-((tetrahydro-2H-pyran-4-yl)oxy)benzonitrile], the results for the IC50 in experiment [1], in experiment [2] and in experiment [3] were 161 nM, above 1000 nM and 76 nM, respectively.

With `N#Cc1cc(-c2ncnc(Nc3ccc(N4CCN(C5COC5)CC4)cc3)n2)ccc1O[C@H]1CCN(C2CCOC2)C[C@H]1F` (stereo partly drawn) [Example 110, 2-(((3R,4S)-3-fluoro-1-(tetrahydrofuran-3-yl)piperidin-4-yl)oxy)-5-(4-((4-(4-(oxetan-3-yl)piperazin-1-yl)phenyl)amino)-1,3,5-triazin-2-yl)benzonitrile], the IC50 in experiment [1] worked out at 330 nM; in experiment [2], 740 nM; in experiment [3], 243 nM.

Take `N#Cc1cc(-c2ncnc(Nc3ccc(N4CCN(C5COC5)CC4)cc3)n2)ccc1O[C@H]1CCN(C2COC2)C[C@H]1F` [Example 111, 2-(((3R,4S)-3-fluoro-1-(oxetan-3-yl)piperidin-4-yl)oxy)-5-(4-((4-(4-(oxetan-3-yl)piperazin-1-yl)phenyl)amino)-1,3,5-triazin-2-yl)benzonitrile]: the results for the 50% inhibitory concentration (IC50) in experiment [1], in experiment [2] and in experiment [3] were 328 nM, 602 nM and 146 nM, respectively.

Regarding `N#Cc1cc(-c2ncnc(Nc3ccc(N4CCN(C5COC5)CC4)cc3)n2)ccc1OC1CCN(C(=O)[C@@H]2CCC(=O)N2)C[C@H]1F` (stereo partly drawn) [Example 112, 2-(((3R)-3-fluoro-1-((S)-5-oxopyrrolidine-2-carbonyl)piperidin-4-yl)oxy)-5-(4-((4-(4-(oxetan-3-yl)piperazin-1-yl)phenyl)amino)-1,3,5-triazin-2-yl)benzonitrile], the half-maximal inhibitory concentration (IC50) in experiment [1] stood at 4 nM; in experiment [2], 375 nM; in experiment [3], 4 nM.

Regarding `N#Cc1cc(-c2ncnc(Nc3ccc(N4CCN(C5COC5)CC4)cc3)n2)ccc1OC1CCN(C(=O)[C@H]2CCC(=O)N2)C[C@H]1F` (stereo partly drawn) [Example 113, 2-(((3R)-3-fluoro-1-((R)-5-oxopyrrolidine-2-carbonyl)piperidin-4-yl)oxy)-5-(4-((4-(4-(oxetan-3-yl)piperazin-1-yl)phenyl)amino)-1,3,5-triazin-2-yl)benzonitrile], the IC50 in experiment [1] is 100 nM; in experiment [2] it was 292 nM; in experiment [3], 64 nM.

As for `N#Cc1cc(-c2ncnc(Nc3ccc(N4CCN(C5COC5)CC4)cc3)n2)ccc1O[C@H]1CCC(=O)NC1` [Example 114, (S)-5-(4-((4-(4-(oxetan-3-yl)piperazin-1-yl)phenyl)amino)-1,3,5-triazin-2-yl)-2-((6-oxopiperidin-3-yl)oxy)benzonitrile], the concentration for half-maximal inhibition (IC50) in experiment [1] was found to be 56 nM; in experiment [2], 175 nM; in experiment [3] it was 20 nM.

As for `C[C@H]1C[C@H](Oc2ccc(-c3ncnc(Nc4ccc(N5CCN(C6COC6)CC5)cc4)n3)cc2C#N)[C@H](F)CN1C(=O)CO` [Example 115, 2-(((2S,4S,5R)-5-fluoro-1-(2-hydroxyacetyl)-2-methylpiperidin-4-yl)oxy)-5-(4-((4-(4-(oxetan-3-yl)piperazin-1-yl)phenyl)amino)-1,3,5-triazin-2-yl)benzonitrile], the figures for the IC50 in experiment [1], in experiment [2] and in experiment [3] were 21 nM, at least 1000 nM and 12 nM, respectively.

`N#Cc1cc(-c2ncnc(Nc3ccc(N4CCN(C5COC5)CC4)cc3)n2)ccc1O[C@H]1CCN(C(=O)[C@@H]2CCC(=O)N2)CC1(F)F` [Example 116, 2-(((S)-3,3-difluoro-1-((S)-5-oxopyrrolidine-2-carbonyl)piperidin-4-yl)oxy)-5-(4-((4-(4-(oxetan-3-yl)piperazin-1-yl)phenyl)amino)-1,3,5-triazin-2-yl)benzonitrile]: the IC50 in experiment [1] amounted to 1 nM; in experiment [2] it was 146 nM; in experiment [3], 2 nM.

On to `N#Cc1cc(-c2ncnc(Nc3ccc(N4CCN(C5COC5)CC4)cc3)n2)ccc1O[C@H]1CCN(C(=O)[C@@H]2CCCC(=O)N2)C[C@H]1F` [Example 117, 2-(((3R,4S)-3-fluoro-1-((S)-6-oxopiperidine-2-carbonyl)piperidin-4-yl)oxy)-5-(4-((4-(4-(oxetan-3-yl)piperazin-1-yl)phenyl)amino)-1,3,5-triazin-2-yl)benzonitrile], for which the IC50 in experiment [1] turned out to be 4 nM; in experiment [2], 342 nM; in experiment [3], 3 nM.

Take `N#Cc1cc(-c2ncnc(Nc3ccc(N4CCN(C5COC5)CC4)cc3)n2)ccc1O[C@H]1CCN(C(=O)C2CCS(=O)(=O)N2)C[C@H]1F` (stereo partly drawn) [Example 118, 2-(((3R,4S)-1-(1,1-dioxidoisothiazolidine-3-carbonyl)-3-fluoropiperidin-4-yl)oxy)-5-(4-((4-(4-(oxetan-3-yl)piperazin-1-yl)phenyl)amino)-1,3,5-triazin-2-yl)benzonitrile]: the IC50 in experiment [1] stood at 11 nM; in experiment [2], 284 nM; in experiment [3], 7 nM.

In the case of `CN1CCN(C(=O)c2ccc(Nc3ncnc(-c4ccc(O[C@H]5CCN(C(=O)CO)C[C@H]5F)c(C#N)c4)n3)cc2)CC1` [Example 119, 2-(((3R,4S)-3-fluoro-1-(2-hydroxyacetyl)piperidin-4-yl)oxy)-5-(4-((4-(4-methylpiperazine-1-carbonyl)phenyl)amino)-1,3,5-triazin-2-yl)benzonitrile], the IC50 is 2 nM in experiment [1], 338 nM in experiment [2] and 6 nM in experiment [3].

(Values after US10040781B2, “Tank-binding kinase inhibitor compounds” (Gilead Sciences, Inc., priority 2014, dated 2018).)
